According to the NIST ThermoML archive (doi:10.1016/j.fluid.2006.09.024):
± gives the expanded uncertainty stated by the source.

Tests used:
[1] = Liquid, Ebulliometric method (Recirculating still)
[2] = xn = mol fraction of the nth substance listed; conditions: 101 kPa, Liquid

## C1C[C@@H]2[C@@H]3CC[C@@H](C3)[C@@H]2C1 [endo-tetrahydrodicyclopentadiene]
[1]; 344.02 K
  vapor or sublimation pressure: 2 ± 0.2 kPa
[1]; 358.17 K
  vapor or sublimation pressure: 3.5 ± 0.2 kPa
[1]; 367.23 K
  vapor or sublimation pressure: 5 ± 0.2 kPa
[1]; 384.68 K
  vapor or sublimation pressure: 10 ± 0.2 kPa
[1]; 396.77 K
  vapor or sublimation pressure: 15 ± 0.2 kPa
[1]; 405.51 K
  vapor or sublimation pressure: 20 ± 0.2 kPa
[1]; 412.5 K
  vapor or sublimation pressure: 25 ± 0.2 kPa
[1]; 418.51 K
  vapor or sublimation pressure: 30 ± 0.2 kPa
[1]; 423.84 K
  vapor or sublimation pressure: 35 ± 0.2 kPa
[1]; 428.42 K
  vapor or sublimation pressure: 40 ± 0.2 kPa
[1]; 432.64 K
  vapor or sublimation pressure: 45 ± 0.2 kPa
[1]; 436.48 K
  vapor or sublimation pressure: 50 ± 0.2 kPa
[1]; 440.06 K
  vapor or sublimation pressure: 55 ± 0.2 kPa
[1]; 443.43 K
  vapor or sublimation pressure: 60 ± 0.2 kPa
[1]; 446.4 K
  vapor or sublimation pressure: 65 ± 0.2 kPa
[1]; 451.93 K
  vapor or sublimation pressure: 75 ± 0.2 kPa
[1]; 454.45 K
  vapor or sublimation pressure: 80 ± 0.2 kPa
[1]; 456.82 K
  vapor or sublimation pressure: 85 ± 0.2 kPa
[1]; 458.86 K
  vapor or sublimation pressure: 90 ± 0.2 kPa
[1]; 460.9 K
  vapor or sublimation pressure: 95 ± 0.2 kPa
[1]; 462.76 K
  vapor or sublimation pressure: 100 ± 0.2 kPa
[1]; 463.6 K
  vapor or sublimation pressure: 101.6 ± 0.2 kPa

## C1C[C@@H]2[C@@H]3CC[C@@H](C3)[C@@H]2C1 [endo-tetrahydrodicyclopentadiene] + C1C[C@@H]2[C@H]3CC[C@H](C3)[C@@H]2C1
[2]; 288.15 K, x2 = 0.4028
  kinematic viscosity: 6.06e-06 ± 1.6e-07 m2/s
  mass density: 954.39 ± 0.27 kg/m3
[2]; 288.15 K, x2 = 0.5145
  kinematic viscosity: 5.23e-06 ± 1.5e-07 m2/s
  mass density: 951.54 ± 0.27 kg/m3
[2]; 288.15 K, x2 = 0.6017
  kinematic viscosity: 4.62e-06 ± 1.3e-07 m2/s
  mass density: 949.22 ± 0.28 kg/m3
[2]; 288.15 K, x2 = 0.6956
  kinematic viscosity: 4.18e-06 ± 1.2e-07 m2/s
  mass density: 946.72 ± 0.28 kg/m3
[2]; 288.15 K, x2 = 0.7966
  kinematic viscosity: 3.86e-06 ± 1.1e-07 m2/s
  mass density: 944.23 ± 0.29 kg/m3
[2]; 288.15 K, x2 = 0.9069
  kinematic viscosity: 3.47e-06 ± 1e-07 m2/s
  mass density: 941.57 ± 0.29 kg/m3
[2]; 288.15 K, x2 = 0.9933
  kinematic viscosity: 3.18e-06 ± 9.2e-08 m2/s
  mass density: 939.58 ± 0.29 kg/m3
[2]; 298.15 K, x2 = 0.4028
  kinematic viscosity: 4.7e-06 ± 1.3e-07 m2/s
  mass density: 946.44 ± 0.29 kg/m3
[2]; 298.15 K, x2 = 0.5145
  kinematic viscosity: 4.1e-06 ± 1.2e-07 m2/s
  mass density: 943.63 ± 0.29 kg/m3
[2]; 298.15 K, x2 = 0.6017
  kinematic viscosity: 3.68e-06 ± 1.1e-07 m2/s
  mass density: 941.29 ± 0.29 kg/m3
[2]; 298.15 K, x2 = 0.6956
  kinematic viscosity: 3.35e-06 ± 9.7e-08 m2/s
  mass density: 938.85 ± 0.3 kg/m3
[2]; 298.15 K, x2 = 0.7966
  kinematic viscosity: 3.06e-06 ± 8.9e-08 m2/s
  mass density: 936.36 ± 0.3 kg/m3
[2]; 298.15 K, x2 = 0.9069
  kinematic viscosity: 2.82e-06 ± 8.2e-08 m2/s
  mass density: 933.78 ± 0.31 kg/m3
[2]; 298.15 K, x2 = 0.9933
  kinematic viscosity: 2.65e-06 ± 7.8e-08 m2/s
  mass density: 931.79 ± 0.31 kg/m3
[2]; 308.15 K, x2 = 0.4028
  kinematic viscosity: 3.67e-06 ± 1.1e-07 m2/s
  mass density: 938.48 ± 0.3 kg/m3
[2]; 308.15 K, x2 = 0.5145
  kinematic viscosity: 3.23e-06 ± 9.4e-08 m2/s
  mass density: 935.68 ± 0.31 kg/m3
[2]; 308.15 K, x2 = 0.6017
  kinematic viscosity: 2.96e-06 ± 8.6e-08 m2/s
  mass density: 933.37 ± 0.31 kg/m3
[2]; 308.15 K, x2 = 0.6956
  kinematic viscosity: 2.72e-06 ± 8e-08 m2/s
  mass density: 930.9 ± 0.31 kg/m3
[2]; 308.15 K, x2 = 0.7966
  kinematic viscosity: 2.49e-06 ± 7.3e-08 m2/s
  mass density: 928.49 ± 0.32 kg/m3
[2]; 308.15 K, x2 = 0.9069
  kinematic viscosity: 2.31e-06 ± 6.8e-08 m2/s
  mass density: 925.9 ± 0.32 kg/m3
[2]; 308.15 K, x2 = 0.9933
  kinematic viscosity: 2.22e-06 ± 6.6e-08 m2/s
  mass density: 923.99 ± 0.32 kg/m3
[2]; 318.15 K, x2 = 0.4028
  kinematic viscosity: 2.99e-06 ± 8.7e-08 m2/s
  mass density: 930.47 ± 0.32 kg/m3
[2]; 318.15 K, x2 = 0.5145
  kinematic viscosity: 2.67e-06 ± 7.8e-08 m2/s
  mass density: 927.69 ± 0.32 kg/m3
[2]; 318.15 K, x2 = 0.6017
  kinematic viscosity: 2.46e-06 ± 7.3e-08 m2/s
  mass density: 925.41 ± 0.33 kg/m3
[2]; 318.15 K, x2 = 0.6956
  kinematic viscosity: 2.29e-06 ± 6.8e-08 m2/s
  mass density: 923 ± 0.33 kg/m3
[2]; 318.15 K, x2 = 0.7966
  kinematic viscosity: 2.12e-06 ± 6.3e-08 m2/s
  mass density: 920.59 ± 0.33 kg/m3
[2]; 318.15 K, x2 = 0.9069
  kinematic viscosity: 1.97e-06 ± 5.9e-08 m2/s
  mass density: 918.06 ± 0.34 kg/m3
[2]; 318.15 K, x2 = 0.9933
  kinematic viscosity: 1.87e-06 ± 5.6e-08 m2/s
  mass density: 916.14 ± 0.34 kg/m3

## C1C[C@@H]2[C@H]3CC[C@H](C3)[C@@H]2C1 [exo-tetrahydrodicyclopentadiene]
[1]; 335.45 K
  vapor or sublimation pressure: 2 ± 0.2 kPa
[1]; 349.97 K
  vapor or sublimation pressure: 3.5 ± 0.2 kPa
[1]; 360.37 K
  vapor or sublimation pressure: 5 ± 0.2 kPa
[1]; 379.33 K
  vapor or sublimation pressure: 10 ± 0.2 kPa
[1]; 391.56 K
  vapor or sublimation pressure: 15 ± 0.2 kPa
[1]; 400.07 K
  vapor or sublimation pressure: 20 ± 0.2 kPa
[1]; 407.31 K
  vapor or sublimation pressure: 25 ± 0.2 kPa
[1]; 413.28 K
  vapor or sublimation pressure: 30 ± 0.2 kPa
[1]; 418.87 K
  vapor or sublimation pressure: 35 ± 0.2 kPa
[1]; 423.1 K
  vapor or sublimation pressure: 40 ± 0.2 kPa
[1]; 427.5 K
  vapor or sublimation pressure: 45 ± 0.2 kPa
[1]; 431.46 K
  vapor or sublimation pressure: 50 ± 0.2 kPa
[1]; 434.98 K
  vapor or sublimation pressure: 55 ± 0.2 kPa
[1]; 438.26 K
  vapor or sublimation pressure: 60 ± 0.2 kPa
[1]; 441.37 K
  vapor or sublimation pressure: 65 ± 0.2 kPa
[1]; 444.02 K
  vapor or sublimation pressure: 70 ± 0.2 kPa
[1]; 447.09 K
  vapor or sublimation pressure: 75 ± 0.2 kPa
[1]; 449.62 K
  vapor or sublimation pressure: 80 ± 0.2 kPa
[1]; 452.19 K
  vapor or sublimation pressure: 85 ± 0.2 kPa
[1]; 454.39 K
  vapor or sublimation pressure: 90 ± 0.2 kPa
[1]; 456.75 K
  vapor or sublimation pressure: 95 ± 0.2 kPa
[1]; 458.83 K
  vapor or sublimation pressure: 100 ± 0.2 kPa
[1]; 459.38 K
  vapor or sublimation pressure: 101.4 ± 0.2 kPa
